Laboratory results from patent US11072628B2, “Nucleoside analogues for the treatment of parasitic infections” (UNIVERSITEIT GENT, priority 2017, dated 2021).
Like-named read-outs stand apart in the source and are kept apart here.

Experiments:
T. brucei Squib 427 = experiment: In vitro drug susceptibility, T. brucei Squib 427 (resazurin); format: cell-based, Trypanosoma brucei brucei
Method: (§1) All trypanosome strains were cultured in the standard HMI-9 medium supplemented with 10% fetal bovine serum (FBS) at 37° C. in a 5% CO2 atmosphere.

MRC-5 fibroblasts = experiment: in vitro
Method: (§2) Cytotoxicity was assayed against MRC-5 fibroblasts. Results are depicted in Tables 4 and 5.

[1] = test system: T. cruzi Tulahuen CL2 β galactosidase strain; experiment: T. cruzi Tulahuen CL2 β galactosidase strain on MRC-5SV2 cells (CPRG); format: cell-based, Trypanosoma cruzi
Method: All cultures and assays were conducted at 37° C./5% CO2. […] The results were expressed as % reduction in parasite burdens compared to control wells from which an EC50 was calculated.

[2] = test system: T. b. rhodesiense STIB-900; experiment: In vitro drug susceptibility, T. b. rhodesiense STIB-900 (resazurin); format: cell-based, Trypanosoma brucei rhodesiense
Method: as §1

[3] = Cytotoxicity against MRC-5 fibroblasts; settings: human
Method: as §2

[4] = Trypanosoma cruzi, TULAHUEN, MRC-5 SV2, Table 2, average of 2-3 independent replicates
[5] = Table 4, average of 2-6 independent determinations, read-out: T.b. brucei EC50
[6] = Table 5, average of 2-4 independent replicates
[7] = Trypanosoma brucei, read-out: T.b. brucei EC50, Table 4, average of 2-6 independent determinations
[8] = MRC-5 fibroblasts, MRC-5 EC50, Table 4, cytotoxicity
[9] = MRC-5 fibroblasts, MRC-5 EC50, Table 5, cytotoxicity
[10] = Trypanosoma cruzi, TULAHUEN, MRC-5 SV2, Table 5, average of 2-4 independent replicates
[11] = Trypanosoma brucei, RHODESIENSE, read-out: T.b. rhod. EC50
[12] = Trypanosoma brucei, read-out: T. brucei brucei EC50, Table 1, average of 2-4 independent determinations
[13] = MRC-5 fibroblasts, MRC-5 EC50, Table 1, cytotoxicity
[14] = MRC-5 fibroblasts, MRC-5 EC50, Table 2, cytotoxicity
[15] = Trypanosoma brucei, RHODESIENSE, read-out: T. brucei rhod. EC50

In the case of “4-amino-5-bromo-N7-(2′,3′-anhydro-2′,3′-dideoxy-β-D-ribofuranosyl)-pyrrolo[2,3-d]pyrimidine [FH10632]”, the EC50 (T. brucei Squib 427; Table 1, average of 2-4 independent determinations, read-out: T. brucei brucei EC50) is reported as > 64000 nM, the EC50 (MRC-5 fibroblasts) is reported as 45600 nM and the EC50 ([1]; Table 2, average of 2-3 independent replicates) is reported as > 64000 nM. It also gave an EC50 ([2]; Table 1, average of 2-4 independent determinations, read-out: T. brucei rhod. EC50) of 59800 nM.

With `O=C(Cn1ccnc1[N+](=O)[O-])NCc1ccccc1` [Benznidazole, reference compound] the EC50 [1, 4] was 2400 nM.

For `Nc1ncnc2c1c(Cl)cn2[C@@H]1O[C@H](CO)[C@@H](O)[C@H]1O` [FH3169], the EC50 (T. brucei Squib 427; [5]) was 1330 nM, the EC50 (MRC-5 fibroblasts) was 33400 nM and the EC50 [1, 6] was 520 nM. It also gave an EC50 ([2]; Table 4, average of 2-6 independent determinations, read-out: T.b. rhod. EC50) of 120 nM.

With `Nc1ncnc2c1c(-c1cnccn1)cn2[C@@H]1O[C@H](CO)[C@@H](O)[C@H]1O` [FH3179, 4-amino-5-(pyrazine-2-yl)-N7-(β-D-ribofuranosyl)-pyrrolo[2,3-d]pyrimidine] the EC50 (T. brucei Squib 427; [7]) was 1950 nM, the EC50 [3, 8] was 550 nM and the EC50 [3, 9] was 550 nM. The “cytotoxicity, in words” value (MRC-5 fibroblasts) was “submicromolar cytotoxicity” and the EC50 [1, 10] was 860 nM.

With `Cn1cnc(-c2cn([C@@H]3O[C@H](CO)[C@@H](O)[C@H]3O)c3ncnc(N)c23)c1` [FH3182] the “anti-trypanosomal activity against T. brucei, in words” value (T. brucei Squib 427) was “low μM activity”, the EC50 (T. brucei Squib 427; [5]) was 4760 nM and the EC50 (MRC-5 fibroblasts) was 23400 nM. The EC50 [1, 6] was 8340 nM.

In the case of `Nc1ncnc2c1c(-c1cccnc1)cn2[C@@H]1O[C@H](CO)[C@@H](O)[C@H]1O` [FH4185, 4-amino-5-(pyrid-3-yl)-N7-(β-D-ribofuranosyl)-pyrrolo[2,3-d]pyrimidine], the “anti-trypanosomal activity against T. brucei, in words” value (T. brucei Squib 427) is reported as “no discernible trypanocidal effects”, the EC50 (T. brucei Squib 427; [7]) is reported as > 64000 nM and the EC50 [3, 8] is reported as > 64000 nM. The EC50 [3, 9] was > 64000 nM and the EC50 [1, 10] was 15400 nM.

With `Nc1ccnc2c1c(I)cn2[C@@H]1O[C@H](CO)[C@@H](O)[C@H]1O` [FH5319, 3-iodo-4-amino-N1-(β-D-ribofuranosyl)-pyrrolo[2,3-b]pyridine] the EC50 (T. brucei Squib 427; [7]) was 400 nM, the EC50 [3, 8] was > 64000 nM and the EC50 [3, 9] was > 64000 nM. For the same compound, the EC50 [1, 10] was 40 nM and the EC50 [2, 11] was > 64000 nM.

Work on `Nc1ncnc2c1c(Br)cn2[C@@H]1O[C@H](CO)C[C@H]1O` [FH7429_U, 4-amino-5-bromo-N7-(3′-deoxy-β-D-ribofuranosyl)-pyrrolo[2,3-d]pyrimidine] yielded an EC50 (T. brucei Squib 427; [12]) of 2 nM, an EC50 [3, 13] of 16100 nM and an EC50 [3, 14] of 16100 nM. For the same compound, the EC50 [1, 4] was 20 nM and the EC50 [2, 15] was < 0.5 nM.

With `COc1ncnc2c1c(Cl)cn2[C@@H]1O[C@H](CO)[C@@H](O)[C@H]1O` [FH8446, 4-methoxy-5-chloro-N7-(β-D-ribfuranosyl)-pyrrolo[2,3-d]pyrimidine] the EC50 (T. brucei Squib 427; [7]) was 160 nM, the EC50 [3, 8] was 48000 nM and the EC50 [3, 9] was 48000 nM. The EC50 [1, 10] was 12700 nM and the EC50 [2, 11] was 40 nM.

Compound `Nc1ncnc2c1c(Cl)cn2[C@@H]1O[C@H](CO)C[C@H]1O` [FH8470] has an EC50 (T. brucei Squib 427; [12]) of 2 nM, an EC50 [1, 4] of 50 nM and an EC50 [2, 15] of 0.4 nM.

In the case of `CC(C)(C)[Si](C)(C)OC[C@@H]1C[C@@H](O)[C@H](n2cc(Br)c3c(N)ncnc32)O1` [FH8471, 4-Amino-5-Bromo-N7-(3′-Deoxy-5′-O-t-Butyl-Dimethylsilyl)-β-D-Ribofuranosyl-Pyrrolo[2,3-d]pyrimidine], the EC50 (T. brucei Squib 427; Trypanosoma brucei, Table 1, average of 2-4 independent determinations, read-out: T. brucei brucei EC50) is reported as 1210 nM, the EC50 [3] is reported as 5310 nM and the EC50 ([2]; Trypanosoma brucei, RHODESIENSE, Table 1, average of 2-4 independent determinations, read-out: T. brucei rhod. EC50) is reported as 80 nM.

With `Cc1ccc(-c2cn([C@@H]3O[C@H](CO)C[C@H]3O)c3ncnc(N)c23)cc1` [FH8481, 4-amino-5-(4-methylphenyl)-N7-(3′-deoxy-β-D-ribofuranosyl)-pyrrolo[2,3-d]pyrimidine] the EC50 (T. brucei Squib 427; [12]) was 33200 nM, the EC50 [3, 13] was 21000 nM and the EC50 [3, 14] was 21000 nM. The EC50 [1, 4] was 460 nM and the EC50 [2, 15] was 18400 nM.

Work on `Nc1ncnc2c1c(I)cn2[C@@H]1O[C@H](CO)C[C@H]1O` [FH8496, 4-amino-5-iodo-N7-(3′-deoxy-β-D-ribfuranosyl)-pyrrolo[2,3-d]pyrimidine] yielded an EC50 (T. brucei Squib 427; [12]) of 10 nM, an EC50 [1, 4] of 30 nM and an EC50 [2, 15] of 1 nM.

`Nc1ncnc2c1c(F)cn2[C@@H]1O[C@H](CO)C[C@H]1O` [FH8517, 4-amino-5-fluoro-N7-(3′-deoxy-β-D-ribofuranosyl)-pyrrolo[2,3-d]pyrimidine] gave an EC50 (T. brucei Squib 427; [12]) of 2 nM, an EC50 [3, 13] of 3600 nM and an EC50 [3, 14] of 3600 nM. For the same compound, the EC50 [1, 4] was 1220 nM and the EC50 [2, 15] was 0.3 nM.
